Reference: patent US20070154882A1, “Beta-polypeptides that inhibit cytomegalovirus infection” (priority 2005, published 2007)

How the values were obtained:
[1] = system: HCMV membrane fusion (nuclear localization of pp65) in NHDF cells; assay: pp65 translocation (virion content delivery) assay; format: cell-based; details: HCMV diluted with 100 µM beta-peptide; 4° C. 90 min, then 37° C. 35 min
Protocol: NHDF cells were grown on glass cover-slips in 12-well plates as above. The HCMV was diluted with 100 µM beta-peptide in SF-DMEM and cooled to 4° C. The treatment was then added to cooled cells, which were incubated at 4° C. for 90 min, assuring viral attachment but not entry. The cells were then transferred to 37° C. for 35 min. The cells were then fixed in 3% paraformaldehyde and immunostained for pp65 as described (Lopper, M.; Compton, T. (2004) in J. Virol. Vol. 78, pp. 8333-8341). Images were taken on the Nikon Eclipse TE2000-S with appropriate filters, using consistent exposure times.
The infectivity assays used in these Examples measures immediate early gene expression; immediate early (IE) proteins are the first viral proteins expressed in infected cells. Inhibition of viral gene expression could reflect interference at a variety of points in the virus life cycle such as inhibition of IE gene transcription or translation. A virion content delivery assay was performed to test whether the beta-peptides act at the viral entry stage, as they have been designed to do. Immediately upon membrane fusion, the phosphoprotein-rich tegument layer of the virus is released into the cytoplasm of the target cell. The pp65 protein, highly abundant in the virion tegument, diffuses rapidly to the nucleus after membrane fusion. […]

Compound	Cytotoxicity, as indicated by P1 uptake (NHDF cells)	further results
CC(=O)NC1CCCC1C(=O)N[C@H](CC(=O)NC1CCCC1C(=O)NC[C@H](CC(C)C)C(=O)NC1CNCC1C(=O)NC1CNCC1C(=O)N[C@H](CC(=O)NC1CCCC1C(=O)NC[C@H](Cc1ccc(O)cc1)C(=O)NC1CNCC1C(=O)NC1CNCC1C(=O)N[C@H](CC(=O)NC1CNCC1C(N)=O)C(C)C)Cc1ccc2ccccc2c1)CC(C)C (some centres unmarked) [EPE-II-231]	Toxic	–
CC(=O)NC1CCCC1C(=O)N[C@H](CC(=O)NC1CCCC1C(=O)NC[C@H](CC(C)C)C(=O)NC1CNCC1C(=O)NC1CNCC1C(=O)N[C@H](CC(=O)NC1CCCC1C(=O)NC[C@H](Cc1ccc(O)cc1)C(=O)NC1CNCC1C(=O)NC1CNCC1C(=O)N[C@H](CC(=O)NC1CNCC1C(N)=O)Cc1cccc2ccccc12)Cc1ccccc1)CC(C)C (some centres unmarked) [EPE-II-227]	Toxic	–
CC(=O)NC[C@H](Cc1ccc(O)cc1)C(=O)NC1CCCC1C(=O)NC1CNCC1C(=O)NC1CNCC1C(=O)N[C@H](CC(=O)NC1CNCC1C(=O)NC1CNCC1C(=O)NC1CCCC1C(=O)NC[C@H](CC(C)C)C(=O)NC1CNCC1C(=O)NC1CCCC1C(=O)N[C@H](CC(=O)N[C@H](CC(N)=O)Cc1ccccc1)C(C)C)CC(C)C (some centres unmarked) [ERP-II-005]	–	disruption of cell membranes (human red blood cells): does not simply disrupt cell membranes; toxicity toward fibroblasts (NHDF cells): highly toxic
heparin	–	nuclear localization of pp65 [1]: eliminates pp65 accumulation in the nucleus
CC(=O)NC1CCCC1C(=O)N[C@H](CC(=O)NC1CCCC1C(=O)NC[C@H](CC(C)C)C(=O)NC1CNCC1C(=O)NC1CNCC1C(=O)N[C@H](CC(=O)NC1CCCC1C(=O)NC[C@H](Cc1ccc(O)cc1)C(=O)NC1CNCC1C(=O)NC1CNCC1C(=O)N[C@H](CC(=O)NC1CNCC1C(N)=O)Cc1ccc2ccccc2c1)Cc1ccccc1)CC(C)C (some centres unmarked) [EPE-II-225]	Toxic	–
CC(=O)NC1CCCC1C(=O)N[C@H](CC(=O)NC1CCCC1C(=O)NC[C@H](CC(C)C)C(=O)NC1CNCC1C(=O)NC1CNCC1C(=O)N[C@H](CC(=O)NC1CCCC1C(=O)NC[C@H](Cc1ccc(O)cc1)C(=O)NC1CNCC1C(=O)NC1CNCC1C(=O)N[C@H](CC(=O)NC1CNCC1C(N)=O)C(C)C)Cc1cccc2ccccc12)CC(C)C (some centres unmarked) [EPE-II-233]	Toxic	–
CNC(=O)C[C@H](C)NC(=O)COC(=O)[C@H]1CCCN1C(=O)CC(Cc1ccccc1)NC(C)=O (some centres unmarked)	–	melting point: 128 to 129 °C
